Test results reported in ChEMBL document CHEMBL1201862, “PubChem BioAssay data set” (2004).
The source made the active and inactive calls.

Assays:
[1] = Luminescence Cell-Based Dose Confirmation HTS to Identify Inhibitors of Platelet Dense Granule Release. [Related pubchem assays: 1663 (Primary HTS), 1678 (Summary of Project)]; format: functional
[2] = growth suppression of beta-catenin-knockout colon cells, dose response, cell-based, HCT116, human colon tumor (AID 1045); format: functional;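 also: HCT116 colon tumor cells with beta catenin knocked out; cells exposed to compound for 60 hours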
[3] = cytotoxicity toward NIH3T3 fibroblasts, dose response, counter-screen, cell-based, ATP luminescence, mouse fibroblasts (AID 2010); format: functional;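 also: cells exposed to compound for about 90 hours before reading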
[4] = growth suppression of PTEN-null colon cells, dose response, cell-based, HCT116 PTEN knockout (AID 1047); format: functional;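 also: HCT116 colon tumor cells with PTEN knocked out; cells exposed to compound for 60 hours before readout; potency for loss of cell viability measured by luminescence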
[5] = inhibitors of intracellular T. cruzi replication, confirmation, NIH3T3 host cells, beta-gal luminescence (AID 2044); format: functional, cell-based;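 also: intracellular parasites grown in NIH/3T3 mouse fibroblasts as host cells; luminescent beta-galactosidase reporter signal from transgenic T. cruzi replicating inside host cells; inhibitors lower the luminescence signal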
INS1 = assay: beta cell apoptosis inhibitors, cytokine rescue, dose response, luminescence, retest (AID 449756); format: functional, cell-based; details: Rattus norvegicus;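 also: cell death triggered by IL-1 beta plus TNF-alpha plus IFN-gamma mixture; protective hits raise ATP signal compared with cytokine alone wells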
Cytochrome P450 3A4 = Cytochrome P450 3A4 (Homo sapiens, UniProt P08684);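 also: CYP3A4 tested as one member of a cytochrome P450 panel screen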
[6] = target: T1, Heat shock factor protein 1 (Mus musculus, UniProt P38532); assay: HSF1 potentiators in luciferase reporter cells, confirmation, cell-based, NIH3T3, luminescence, dose retest (AID 435004); format: functional;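 also: stress induced by proteasome inhibitor MG132 added 30 min after compound; luciferase reporter driven by HSF1 response element in NIH3T3 cells; actives raise luminescence as potentiators of the MG132 stress response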
T1 sequence (P38532 whole entry): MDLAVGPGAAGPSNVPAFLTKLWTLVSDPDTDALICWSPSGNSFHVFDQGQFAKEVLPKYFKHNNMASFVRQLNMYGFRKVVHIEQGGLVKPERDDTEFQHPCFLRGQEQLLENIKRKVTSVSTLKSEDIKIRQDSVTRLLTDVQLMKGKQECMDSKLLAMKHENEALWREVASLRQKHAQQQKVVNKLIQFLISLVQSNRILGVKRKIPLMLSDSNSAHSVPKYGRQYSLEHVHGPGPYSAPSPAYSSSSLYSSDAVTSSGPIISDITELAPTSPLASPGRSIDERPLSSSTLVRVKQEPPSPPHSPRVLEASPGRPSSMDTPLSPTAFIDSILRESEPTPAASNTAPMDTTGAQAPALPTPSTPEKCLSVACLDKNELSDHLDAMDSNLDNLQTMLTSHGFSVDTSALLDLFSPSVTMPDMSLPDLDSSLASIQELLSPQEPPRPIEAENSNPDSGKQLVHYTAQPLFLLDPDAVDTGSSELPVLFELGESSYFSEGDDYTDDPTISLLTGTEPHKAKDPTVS

[7] = Luminescence Cell-Based Dose Retest to Confirm Inhibitors of Cancer Stem Cells. [Related pubchem assays (depositor defined):AID2717, AID2721]; format: functional, Homo sapiens; details: Homo sapiens
[8] = target: Luciferin 4-monooxygenase (Photinus pyralis, UniProt P08659); assay: firefly luciferase enzyme inhibitors, dose response, biochemical, luminescence (AID 1891)
Cytochrome P450 2C19 = Cytochrome P450 2C19 (Homo sapiens, UniProt P33261); assay: Cytochrome panel assay with activity outcomes. Panel member name: p450-cyp2c19 Compounds with AC50 equal or less than 10 uM are considered active; format: functional
Streptokinase A = target: T2, Streptokinase A (Streptococcus pyogenes serotype M1, UniProt P10520); assay: S. pyogenes streptokinase expression inhibitors, potency, dose response, plasminogen activation absorbance, OD405 (AID 1914); format: functional, Streptococcus pyogenes M1 GAS;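 also: secreted streptokinase activity via plasminogen activation per viability signal from cell pellet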
T2 sequence (P10520 whole entry): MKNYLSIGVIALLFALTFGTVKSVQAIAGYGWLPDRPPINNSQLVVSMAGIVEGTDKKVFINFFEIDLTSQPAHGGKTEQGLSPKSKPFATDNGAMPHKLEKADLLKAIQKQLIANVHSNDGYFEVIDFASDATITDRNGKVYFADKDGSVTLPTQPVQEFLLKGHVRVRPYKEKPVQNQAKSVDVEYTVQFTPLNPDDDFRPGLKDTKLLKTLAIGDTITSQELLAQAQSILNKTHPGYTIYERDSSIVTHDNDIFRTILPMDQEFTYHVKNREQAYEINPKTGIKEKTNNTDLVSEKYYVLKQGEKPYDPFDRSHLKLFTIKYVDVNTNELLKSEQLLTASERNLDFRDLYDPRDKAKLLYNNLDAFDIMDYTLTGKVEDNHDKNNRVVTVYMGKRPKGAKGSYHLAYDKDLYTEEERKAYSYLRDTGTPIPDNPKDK

[9] = HEp-2 cell cytotoxicity, dose response, cytotoxicity control for RSV inhibitor project, HTS (AID 2410); format: functional; details: human respiratory syncytial virus
Streptococcus = assay: Group A Streptococcus viability loss, dose response, counter-screen for streptokinase expression inhibitor project, luminescence, BacTiterGlo (AID 1915); format: functional, organism-based;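 also: potency for reduction of bacterial viability or growth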
[10] = system: Streptococcus sp. 'group A'; assay: growth inhibition of control SK(-) GAS strain, dose response, counter-screen for streptokinase expression inhibitor project, luminescence, kanamycin, BacTiterGlo, confirmation (AID 1900); format: functional, organism-based

Cytochrome P450 2C19, sequence (P33261 whole entry): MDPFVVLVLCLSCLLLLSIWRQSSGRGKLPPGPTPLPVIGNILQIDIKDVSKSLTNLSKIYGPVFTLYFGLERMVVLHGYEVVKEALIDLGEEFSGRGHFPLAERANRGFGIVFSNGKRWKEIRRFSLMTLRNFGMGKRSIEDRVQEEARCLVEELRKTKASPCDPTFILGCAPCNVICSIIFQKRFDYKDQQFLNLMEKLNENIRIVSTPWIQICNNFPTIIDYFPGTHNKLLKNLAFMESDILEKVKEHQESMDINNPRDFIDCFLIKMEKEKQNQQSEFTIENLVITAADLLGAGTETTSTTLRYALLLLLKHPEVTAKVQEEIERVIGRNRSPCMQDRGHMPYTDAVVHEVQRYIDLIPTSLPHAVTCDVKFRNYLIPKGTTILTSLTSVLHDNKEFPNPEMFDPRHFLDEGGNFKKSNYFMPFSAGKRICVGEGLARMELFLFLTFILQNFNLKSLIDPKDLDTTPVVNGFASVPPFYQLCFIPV
Cytochrome P450 3A4, sequence (P08684 whole entry): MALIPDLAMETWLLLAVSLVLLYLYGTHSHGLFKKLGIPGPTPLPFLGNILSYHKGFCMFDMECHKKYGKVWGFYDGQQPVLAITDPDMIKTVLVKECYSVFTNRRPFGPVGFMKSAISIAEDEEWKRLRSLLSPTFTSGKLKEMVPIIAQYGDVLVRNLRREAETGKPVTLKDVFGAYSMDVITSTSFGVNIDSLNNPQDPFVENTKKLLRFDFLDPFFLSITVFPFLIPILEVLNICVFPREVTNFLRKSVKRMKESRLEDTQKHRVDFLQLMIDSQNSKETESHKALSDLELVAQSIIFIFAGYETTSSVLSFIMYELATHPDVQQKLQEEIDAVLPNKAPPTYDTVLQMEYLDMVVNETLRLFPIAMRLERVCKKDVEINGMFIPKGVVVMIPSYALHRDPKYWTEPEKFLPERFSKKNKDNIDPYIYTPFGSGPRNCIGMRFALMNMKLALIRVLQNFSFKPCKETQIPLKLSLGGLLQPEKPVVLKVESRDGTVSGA
Luciferin 4-monooxygenase, sequence (P08659 whole entry): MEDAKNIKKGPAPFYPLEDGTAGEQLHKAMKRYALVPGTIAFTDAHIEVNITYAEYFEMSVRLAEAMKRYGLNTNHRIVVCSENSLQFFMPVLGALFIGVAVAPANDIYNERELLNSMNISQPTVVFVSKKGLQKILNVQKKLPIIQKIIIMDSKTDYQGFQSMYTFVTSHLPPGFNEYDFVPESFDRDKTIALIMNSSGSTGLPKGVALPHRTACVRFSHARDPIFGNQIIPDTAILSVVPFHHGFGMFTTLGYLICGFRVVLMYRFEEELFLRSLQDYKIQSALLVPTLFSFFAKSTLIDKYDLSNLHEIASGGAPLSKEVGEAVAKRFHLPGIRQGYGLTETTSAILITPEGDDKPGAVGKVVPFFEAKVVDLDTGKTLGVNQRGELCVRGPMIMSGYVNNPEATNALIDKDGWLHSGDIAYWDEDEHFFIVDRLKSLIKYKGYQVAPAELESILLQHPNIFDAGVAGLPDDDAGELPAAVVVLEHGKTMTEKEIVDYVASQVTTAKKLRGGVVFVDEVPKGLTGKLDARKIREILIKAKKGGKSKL

## Oc1nc2cc(NC(S)=Nc3ccccc3Cl)ccc2[nH]1
[1]
  EC50: > 112 µM (not active)

## CC(Nc1nc(N2CCCC2)nc2ccccc12)c1ccccc1 (stereo unspecified)
[2]
  EC50: 4.31 µM (active)
[3]
  EC50: 55.9 µM (active)
[4]
  EC50: 5.65 µM (active)
[5]
  EC50: 0.568 µM (active)

## COc1ccc(/C(C)=N/Nc2nc(C)cc(-c3ccccc3)n2)cc1
INS1
  AC50: 0.703 µM (active)

## COCC(=O)N/N=C/c1ccc(Sc2nc3ccccc3s2)o1
Cytochrome P450 3A4
  AC50: 22.4 µM (inconclusive)

## CC(C)NC(=O)CN(C(=O)CCC(=O)Nc1nccs1)c1ccc2c(c1)OCO2
[6]
  EC50: > 260 µM (inactive)

## CC[C@]1(c2ccccc2OC)ON(c2ccccc2C(F)(F)F)C1=O
INS1
  AC50: 1.75 µM (active)

## CCOC(=O)C1=C(c2ccccc2)N=c2s/c(=C\c3cccc(O)c3)c(=O)n2C1c1cccs1 (stereo unspecified)
[2]
  EC50: 15.1 µM (active)
[4]
  EC50: 15 µM (active)
[7]
  AC50: 2.94 µM (active)

## O=C1COc2ccc(C(=O)COC(=O)c3cc(S(=O)(=O)N4CCOCC4)ccc3F)cc2N1
[8]
  EC50: > 112 µM (not active)
[1]
  EC50: 22.9 µM (active)

## Cc1nc2ccccc2n1CC(=O)N/N=C\c1ccccn1
Cytochrome P450 2C19
  AC50: inconclusive

## C=CCNC(=O)/C(C#N)=C/c1c(N(Cc2ccccc2)Cc2ccccc2)nc2ccccn2c1=O
[2]
  EC50: 25.3 µM (active)
[4]
  EC50: 26 µM (active)

## COC(=O)c1cc(=O)n(Cc2ccco2)/c(=N/c2ccc(F)c(Cl)c2)s1
[2]
  EC50: 7.55 µM (active)
[4]
  EC50: 8.9 µM (active)

## COc1cc(NC(=S)N2CCN(C/C=C/c3ccccc3)CC2)cc(OC)c1
[8]
  EC50: > 112 µM (not active)
[1]
  EC50: > 112 µM (not active)

## COc1c(/C=N/Nc2nc(N3CCCCC3)nc(N3CCCCC3)n2)cccc1[N+](=O)[O-]
Cytochrome P450 2C19; read-out: AC50
  AC50: 7.94 µM (inconclusive)

## COc1ccc(Cl)cc1NC(=O)c1cc(S(=O)(=O)N2CCCC2)cn1C
[8]
  EC50: > 112 µM (not active)
[1]
  EC50: > 112 µM (not active)

## Cc1ccc2c(c1)C1CCCC3C1N2CC(=O)N3Cc1ccccc1 (stereo unspecified)
[2]
  EC50: 62.7 µM (active)
[4]
  EC50: 33.9 µM (active)

## COCCn1c(N)c(C(=O)Nc2sc3c(c2C(=O)OC)CCCC3)c2nc3ccccc3nc21
Streptokinase A
  EC50: > 150 µM (not active)
[9]
  CC50: > 50 µM (active)
Streptococcus
  EC50: 82.4 µM (active)
[10]
  EC50: 1.83 µM (active)

## CCCNC(=O)OC[C@@H]1O[C@H](CCON=C(C)C)C=C[C@@H]1Oc1ccc(OC)cc1
Cytochrome P450 3A4
  AC50: 3.98 µM (inconclusive)

## COc1ccc(CNCc2cc3c(C(C)(C)C)nn(-c4ccccc4)c3nc2O)cc1
[2]
  EC50: 14.2 µM (active)
[4]
  EC50: 10.3 µM (active)

## O=C(c1ccco1)N1CCC2(CCCN(c3ccccc3)C2)CC1
Cytochrome P450 3A4
  AC50: 15.8 µM (inconclusive)

## NC(=O)c1c(NC(=O)c2ccc(S(=O)(=O)N(CCCl)CCCl)cc2)sc2c1CCCCC2
[2]
  EC50: 20.5 µM (active)
[4]
  EC50: 15 µM (active)

## COc1ccccc1C(=O)COC(=O)/C=C/c1ccccc1
[8]
  EC50: > 112 µM (not active)
[1]
  EC50: > 112 µM (not active)

## Cc1ccc(NS(=O)(=O)c2cccc(C(=O)N3CCCCCCC3)c2)cc1
[8]
  EC50: > 112 µM (not active)
[1]
  EC50: > 112 µM (not active)

## [O-][n+]1c2c([n+]([O-])c3cc(F)c(F)cc31)CCCC2
Cytochrome P450 2C19; read-out: AC50
  AC50: 1 µM (inconclusive)

## CC1CC(OC(=O)CN2CCCCC2)CC(C)(C)C1 (stereo unspecified)
[8]
  EC50: > 112 µM (not active)
[1]
  EC50: > 112 µM (not active)

## C=CCNC(=O)c1ccc2nc(-c3ccccc3)c(-c3ccccc3)nc2c1
Cytochrome P450 2C19; read-out: AC50
  AC50: 39.8 µM (inconclusive)

## CCN=C(S)NNC(=O)c1cc(-c2cccc(OC)c2)nc2ccccc12
[8]
  EC50: 0.259 µM (active)
[1]
  EC50: 7.86 µM (active)

## C/C(CCc1oc2c(Br)cc(Br)cc2c1-c1ccc(C)o1)=N\O
[6]
  EC50: > 260 µM (inactive)

## CCOC(=O)C1=NN(C(=O)Nc2ccc(OC)cc2)C2C(=O)N(c3cccc(C(F)(F)F)c3)C(=O)C12 (stereo unspecified)
[8]
  EC50: > 112 µM (not active)
[1]
  EC50: 27.2 µM (active)

## CC1CCN(C(c2ccc(N(C)C)cc2)c2nnnn2Cc2ccccc2)CC1 (stereo unspecified)
[6]
  EC50: > 260 µM (inactive)

## OC(COc1cccc2ccccc12)CN1CCN(c2ccc(Cl)cc2)CC1 (stereo unspecified)
Streptokinase A
  EC50: 31.1 µM (active)
[7]
  AC50: 6.37 µM (active)
[9]
  CC50: 12 µM (active)
Streptococcus
  EC50: 34.3 µM (active)
[10]
  EC50: 19.7 µM (active)

## CN(C)CCNc1ccccn1
Cytochrome P450 2C19
  AC50: inconclusive

## O=C(N/N=C\c1ccc(CNS(=O)(=O)c2ccc(Cl)cc2)o1)C(=O)Nc1ccc(Oc2ccccc2)cc1
[2]
  EC50: 11.1 µM (active)
[4]
  EC50: 9.47 µM (active)

## CC(C)(C)NC(=O)C(c1ccccn1)N(C(=O)C1CSC(=O)C1)c1ccc(F)cc1 (stereo unspecified)
Cytochrome P450 3A4
  AC50: 0.794 µM (inconclusive)

## CC(C)c1cccc2nc3c(c(C(C)(C)C)c12)Cn1c-3cccc1=O
Cytochrome P450 3A4
  AC50: 5.01 µM (inconclusive)
Cytochrome P450 2C19; read-out: AC50
  AC50: 25.1 µM (inconclusive)

## CCN(CC)c1ccc(C(=O)N/N=C/c2ccccc2OC(F)F)cc1
INS1
  AC50: 5.97 µM (active)

## COc1ccc(OC)c2sc(NC(=O)CCS(=O)(=O)c3ccccc3)nc12
[2]
  EC50: 62 µM (active)
[4]
  EC50: 81.3 µM (active)

## Cc1c(C(=O)Nc2ccc(-c3nnc4n3CCCCC4)cc2)oc2c1ccc1ccccc12
[2]
  EC50: 20.9 µM (active)
[3]
  EC50: > 60 µM (not active)
[4]
  EC50: 19.8 µM (active)
[7]
  AC50: 2.48 µM (active)
[5]
  EC50: 1.45 µM (active)

## COC(=O)c1ccc2c(=O)n(-c3ccccc3)c(SCN3C(=O)c4ccccc4C3=O)nc2c1
INS1
  AC50: 6.09 µM (active)

## CCOc1ccc(S(=O)(=O)NN=C(S)Nc2ccc(Br)cc2)cc1
[6]
  EC50: > 260 µM (inactive)

## Cc1cc(NC(=O)Cn2nc(C)c([N+](=O)[O-])c2C)no1
[8]
  EC50: > 112 µM (not active)
[1]
  EC50: > 112 µM (not active)

## C=C(CC1([C@@H](NP(=O)(c2ccccc2)c2ccccc2)[C@H]2C[C@@H]2CCCC)CC1)c1ccccc1
Cytochrome P450 2C19; read-out: AC50
  AC50: 7.94 µM (inconclusive)
Streptokinase A
  EC50: > 150 µM (not active)
[7]
  AC50: 3.22 µM (active)
Streptococcus
  EC50: 4.4 µM (active)
[10]
  EC50: 2.27 µM (active)

## COCCNC(=O)c1cn(Cc2c(F)cccc2Cl)nn1
[8]
  EC50: > 112 µM (not active)
[1]
  EC50: > 112 µM (not active)

## Cc1cccc(OCC(=O)Nc2ccc3c(c2)nc(CCN2CCCCC2)n3C)c1
[6]
  EC50: > 260 µM (inactive)

## c1ccc2[nH]c(-c3nc4ccccc4[nH]3)nc2c1
[8]
  EC50: 2.11 µM (active)
[1]
  EC50: 3.25 µM (active)

## Nc1c(C(=O)NCCN2CCOCC2)c2nc3ccccc3nc2n1CCc1ccccc1
[2]
  EC50: 17.9 µM (active)
[4]
  EC50: 15.4 µM (active)

## CCc1ccc2c(c1)C1(NN=C(c3ccc(C)cc3)S1)C(=O)N2 (stereo unspecified)
[2]
  EC50: 2.81 µM (active)
[4]
  EC50: 4.58 µM (active)

## Cc1cc(C(C)(C)C)c(OCCCN2CCOCC2)c(C(C)(C)C)c1
Cytochrome P450 3A4
  AC50: 3.16 µM (inconclusive)

## COc1cc(C2c3c(-c4cc(Cl)c(C)cc4O)n[nH]c3C(=O)N2Cc2cccnc2)ccc1O (stereo unspecified)
[8]
  EC50: > 112 µM (not active)
[1]
  EC50: 85 µM (active)

## O=C(/C=C/c1ccc(-c2ccccc2)cc1)NCc1cccnc1
INS1
  AC50: 7.49 µM (active)

## COc1ccc2[nH]cc(C=O)c2c1
Cytochrome P450 2C19; read-out: AC50
  AC50: 28.2 µM (inconclusive)

## COCCn1c(=O)c(-c2cc(F)cc(F)c2)nc2cncnc21
Cytochrome P450 3A4
  AC50: 15.8 µM (inconclusive)

## Fc1ccc2nc(Nc3nc4c(F)cc(F)cc4s3)sc2c1
INS1
  AC50: 7.02 µM (active)

## O=[N+]([O-])c1cccc(/C=C/c2nc(/C=N/c3ccc4ccccc4c3)c(O)o2)c1
[2]
  EC50: 18 µM (active)
[4]
  EC50: 12.8 µM (active)
